inhibition, pest or weed control and melting point data for eleven molecules are collected here from patent US10314308B2, “Microbiocidal benzoxaboroles” (SYNGENTA PARTICIPATIONS AG, priority 2015, dated 2019).

Data set [1] relates to Mycosphaerella Graminicola(Septoria Tritici). In words: Mycosphaerella graminicola (Septoria tritici) / liquid culture (Septoria blotch). Type of data set: cell-based. As to conditions: Zymoseptoria tritici, PDB potato dextrose broth, 24° C., 4-5 days after application, read-out: disease control (inhibition of growth, photometrically). Put shortly: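 Cryostored conidia mixed into potato dextrose broth and added to compound dispensed from DMSO solution. Incubation at 24 °C; growth inhibition read photometrically 4-5 days after application.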

Data set [2] has as its system Plasmopara Viticola. Put plainly: whole plant or invertebrate. Type of data set: in vivo. To be noted: foliar, read-out: disease control.
Data set [3] has as its system Monographella Nivalis(Microdochium Nivale). Put plainly: Monographella nivalis (Microdochium nivale) / liquid culture (foot rot cereals). Type of data set: cell-based. To be noted: PDB potato dextrose broth, 24° C., 4-5 days after application, read-out: disease control (inhibition of growth, photometrically). In outline: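 Conidia from cryogenic storage mixed into potato dextrose broth, added to compound pre-dispensed from DMSO solution. Incubated at 24° C.; growth inhibition read photometrically 4-5 days after application.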

The test system of data set [4] is Fusarium Culmorum. Put plainly: microbe, parasite or virus in culture. Type of data set: cell-based. To be noted: read-out: disease control (inhibition of growth, photometrically).
For data set [5], the system named is Botryotinia Fuckeliana(Botrytis Cinerea). Put plainly: Botryotinia fuckeliana (Botrytis cinerea) / liquid culture (gray mould). As to conditions: Vogels broth, 24° C., 3-4 days after application, read-out: disease control (inhibition of growth, photometrically). Type of data set: cell-based. How it is done: 9 Botryotinia Fuckeliana(Botrytis Cinerea)/Liquid Culture (Gray Mould) Conidia of the fungus from cryogenic storage were directly mixed into nutrient broth (Vogels broth). After placing a DMSO solution of test compound into a 96-well microtiter plate, the nutrient broth containing the fungal spores was added. The test plates were incubated at 24° C. and the inhibition of growth was determined photometrically 3-4 days after application.

Data set [6] has as its system Phaeosphaeria Nodorum (Septoria Nodorum). In words: Phaeosphaeria nodorum (Septoria nodorum) / wheat / leaf disc preventative (glume blotch). Type of data set: in vivo. As to conditions: Parastagonospora nodorum, foliar, wheat leaf segments cv Kanzler, inoculated 2 days after application, assessed 5-7 days after application, read-out: disease control. The procedure:
5 Phaeosphaeria Nodorum (Septoria Nodorum)/Wheat/Leaf Disc Preventative (Glume Blotch) Wheat leaf segments cv Kanzler were placed on agar in a 24-well plate and sprayed with formulated test compound diluted in water. The leaf disks were inoculated with a spore suspension of the fungus 2 days after application. The inoculated test leaf disks were incubated at 20° C. and 75% relative humidity under a light regime of 12/12 h (light/dark) in a climate cabinet and the activity of a compound was assessed as percent disease control compared to untreated when an appropriate level of disease damage appears in untreated check leaf disks (5-7 days after application).

The subject of data set [7] is Mycosphaerella Arachidis(Cercospora Arachidicola). Put plainly: Mycosphaerella arachidis (Cercospora arachidicola) / liquid culture (early leaf spot). Type of data set: cell-based. To be noted: PDB potato dextrose broth, 24° C., 4-5 days after application, read-out: disease control (inhibition of growth, photometrically). Put shortly:
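Cryo-stored conidia in potato dextrose broth were added to compound in DMSO in microtiter plates. After incubation at 24 °C, growth inhibition was measured photometrically 4-5 days after application.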

For data set [8], the system named is Puccinia Recondita f. sp. Tritici. In words: Puccinia recondita f. sp. tritici / wheat / leaf disc preventative (brown rust). Type of data set: in vivo. As to conditions: foliar, wheat leaf segments cv Kanzler, inoculated 1 day after application, assessed 7-9 days after application, read-out: disease control. The procedure: 3 Puccinia Recondita f. sp. Tritici/Wheat/Leaf Disc Preventative (Brown Rust) Wheat leaf segments cultivated variety (cv) Kanzler were placed on agar in 24-well plates and sprayed with formulated test compound diluted in water. The leaf disks were inoculated with a spore suspension of the fungus 1 day after application. The inoculated leaf segments were incubated at 19° C. and 75% relative humidity under a light regime of 12/12 h (light/dark) in a climate cabinet and the activity of a compound was assessed as percent disease control compared to untreated when an appropriate level of disease damage appears in untreated check leaf segments (7-9 days after application).

Data set [9] deals with Gaeumannomyces Graminis. In words: Gaeumannomyces graminis / liquid culture (take-all of cereals). Type of data set: cell-based. To be noted: PDB potato dextrose broth, 24° C., 4-5 days after application, read-out: disease control (inhibition of growth, photometrically). In outline: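 Mycelial fragments from cryogenic storage mixed into potato dextrose broth and added to test compound in DMSO. Incubated at 24° C; growth inhibition read photometrically 4-5 days after application.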

Data set [10] relates to Thanatephorus Cucumeris(Rhizoctonia Solani). In words: Thanatephorus cucumeris (Rhizoctonia solani) / liquid culture (foot rot, damping-off). As to conditions: PDB potato dextrose broth, 24° C., 3-4 days after application, read-out: disease control (inhibition of growth, photometrically). Type of data set: cell-based. Put shortly:
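Mycelial fragments in potato dextrose broth exposed to compound (DMSO solution) at 200 ppm. Incubation at 24° C.; growth inhibition measured photometrically 3-4 days after application.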

Data set [11] relates to Glomerella Lagenarium(Colletotrichum Ladenarium). Put plainly: Glomerella lagenarium (Colletotrichum lagenarium) / liquid culture (anthracnose). Type of data set: cell-based. As to conditions: PDB potato dextrose broth, 24° C., 3-4 days after application, read-out: disease control (inhibition of growth, photometrically). Put shortly:
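Cryostored conidia were suspended in potato dextrose broth and added to compound in DMSO. Cultures were incubated at 24 °C. Growth inhibition was measured photometrically 3–4 days after application.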

The subject of data set [12] is Pythium Ultimum. In words: Pythium ultimum / liquid culture (seedling damping off). As to conditions: Globisporangium ultimum, potato dextrose broth, 24° C., 2-3 days after application, read-out: disease control (inhibition of growth, photometrically). Type of data set: cell-based.
Data set [13] concerns Sclerotinia Sclerotiorum. Put plainly: Sclerotinia sclerotiorum / liquid culture (cottony rot). Type of data set: cell-based. To be noted: PDB potato dextrose broth, 24° C., 3-4 days after application, read-out: disease control (inhibition of growth, visually). In outline:
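Mycelial fragments from fresh liquid culture in potato dextrose broth added to test compounds in DMSO. Incubated at 24° C; growth inhibition scored visually 3-4 days after application.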

In data set [14] the test system is Phytophthora Infestans. Put plainly: whole plant or invertebrate. To be noted: in Solanum lycopersicum, foliar, read-out: disease control. Type of data set: in vivo.

`OB1OCc2cc(Cl)c(-c3cccs3)cc21` [Compound 3] displayed a melting point of 125 to 135 °C. The inhibition at 20 ppm in [1] was at least 80%. The pest or weed control at 200 ppm in data set [2] was at least 80%. Further, the inhibition at 20 ppm in data set [3] is at least 80%. The inhibition at 20 ppm in data set [4] is at least 80%. Also, the inhibition at 20 ppm in data set [5] is at least 80%. For the same molecule, the pest or weed control at 200 ppm in data set [6] is at least 80%. Moreover, the inhibition at 20 ppm in data set [7] was at least 80%. Further, in [8], the pest or weed control at 200 ppm was at least 80%. Moreover, the inhibition at 20 ppm in data set [9] was at least 80%. In addition, the inhibition at 20 ppm in [10] is at least 80%. Besides, in [11], the inhibition at 20 ppm was at least 80%. For the same molecule, the inhibition at 20 ppm in data set [12] was at least 80%. In data set [13], the inhibition at 20 ppm was at least 80%.
As to `Cn1cccc1-c1cc2c(cc1Cl)COB2O` [Compound 4], the melting point was 195 to 202 °C. Moreover, in data set [1], the inhibition at 20 ppm is at least 80%. The pest or weed control at 200 ppm in data set [2] was at least 80%. The inhibition at 20 ppm in [3] is at least 80%. Besides, in [4], the inhibition at 20 ppm was at least 80%. In addition, in data set [6], the pest or weed control at 200 ppm was at least 80%. Besides, the inhibition at 20 ppm in [7] was at least 80%. The pest or weed control at 200 ppm in data set [8] was at least 80%. In addition, the inhibition at 20 ppm in data set [9] is at least 80%. The inhibition at 20 ppm in data set [11] is at least 80%. In addition, the inhibition at 20 ppm in data set [12] is at least 80%.
Molecule `OB1OCc2cc(F)c(-c3cccs3)cc21` [Compound 6] came in with a melting point of 134 to 140 °C. Further, the inhibition at 20 ppm in data set [1] was at least 80%. For the same molecule, the pest or weed control at 200 ppm in [2] was at least 80%. In addition, the inhibition at 20 ppm in [3] is at least 80%. For the same molecule, the inhibition at 20 ppm in data set [4] is at least 80%. The inhibition at 20 ppm in data set [5] is at least 80%. In data set [7], the inhibition at 20 ppm was at least 80%. Further, in data set [8], the pest or weed control at 200 ppm is at least 80%. Moreover, the inhibition at 20 ppm in data set [9] is at least 80%. Moreover, in [10], the inhibition at 20 ppm is at least 80%. For the same molecule, the inhibition at 20 ppm in data set [11] is at least 80%. In data set [12], the inhibition at 20 ppm was at least 80%. The inhibition at 20 ppm in data set [13] was at least 80%.
Molecule `OB1OCc2cc(Cl)c(-c3ncno3)cc21` [Compound 14, 5-(5-chloro-1-hydroxy-3H-2,1-benzoxaborol-6-yl)-1,2,4-oxadiazole] gave a melting point of 175 to 177 °C. The inhibition at 20 ppm in data set [1] is at least 80%. In data set [2], the pest or weed control at 200 ppm is at least 80%. Further, in data set [3], the inhibition at 20 ppm is at least 80%. The inhibition at 20 ppm in [4] is at least 80%. Moreover, the inhibition at 20 ppm in data set [5] is at least 80%. The inhibition at 20 ppm in data set [7] was at least 80%. Moreover, the pest or weed control at 200 ppm in data set [8] was at least 80%. Besides, in data set [9], the inhibition at 20 ppm is at least 80%. The inhibition at 20 ppm in data set [10] was at least 80%. Also, in data set [11], the inhibition at 20 ppm is at least 80%. Besides, the inhibition at 20 ppm in [12] is at least 80%. In addition, the inhibition at 20 ppm in data set [13] is at least 80%.
Turning to `Cc1ncsc1-c1cc2c(cc1Cl)COB2O` [Compound 16], the inhibition at 20 ppm in data set [1], in data set [3], in data set [4], in [5], in [7] and in data set [9] was at least 80% throughout. In addition, the inhibition at 20 ppm in [11], in [12] and in data set [13] was at least 80% in each case. The pest or weed control at 200 ppm in data set [2] and in [14] was at least 80% in each case.
In the case of `CC1N=C(c2cc3c(cc2Cl)COB3O)S/C1=N/O` (stereo not drawn) [Compound 17], the inhibition at 20 ppm in data set [1], in [3], in data set [4], in [5], in [7] and in data set [9] was at least 80% in each case. The inhibition at 20 ppm in data set [11], in data set [12] and in data set [13] was at least 80% each time. Further, in [14], the pest or weed control at 200 ppm is at least 80%.
Turning to `CC(=O)c1ccc(-c2cc3c(cc2Cl)COB3O)o1` [Compound 39], the pest or weed control at 200 ppm in [2] and in [14] was at least 80% throughout. Also, the inhibition at 20 ppm in data set [3], in data set [4], in data set [7], in data set [9], in data set [10] and in data set [11] was at least 80% in each case. In [12], the inhibition at 20 ppm is at least 80%.
As to `OB1OCc2cc(F)c(-c3ccsc3Cl)cc21` [Compound 79], the inhibition at 20 ppm in data set [1], in data set [3], in [7], in data set [9], in [10] and in data set [11] was at least 80% throughout. Moreover, the inhibition at 20 ppm in data set [12] and in data set [13] was at least 80% in each case. The pest or weed control at 200 ppm in [2], in [6] and in [8] was at least 80% in each case.
Regarding `OB1OCc2cc(Cl)c(-c3ccsc3Cl)cc21` [Compound 88], the inhibition at 20 ppm in data set [1], in [3], in data set [4], in data set [7], in data set [9] and in data set [10] was at least 80% in each case. The inhibition at 20 ppm in data set [11], in data set [12] and in data set [13] was at least 80% throughout. The pest or weed control at 200 ppm in data set [2], in data set [6] and in data set [8] was at least 80% in each case.
With `OB1OCc2cc(Cl)c(-c3cncc(C(F)(F)F)c3)cc21` [Compound 91], the inhibition at 20 ppm in data set [1], in [3], in [4], in data set [5], in [7] and in data set [9] was at least 80% in each case. The inhibition at 20 ppm in data set [10], in data set [11], in data set [12] and in [13] was at least 80% each time. For the same molecule, the pest or weed control at 200 ppm in data set [2], in [6] and in data set [8] was at least 80% throughout.
In turn, `OB1OCc2cc(Cl)c(-c3ncon3)cc21` [Compound 96] displayed a melting point of 180 to 203 °C. For the same molecule, the inhibition at 20 ppm in data set [1] is at least 80%. Further, the inhibition at 20 ppm in [3] is at least 80%. In addition, the inhibition at 20 ppm in [4] was at least 80%. Also, the inhibition at 20 ppm in data set [5] is at least 80%. Further, the inhibition at 20 ppm in [7] was at least 80%. Further, the pest or weed control at 200 ppm in data set [8] is at least 80%. For the same molecule, the inhibition at 20 ppm in data set [9] is at least 80%. For the same molecule, the inhibition at 20 ppm in [10] is at least 80%. The inhibition at 20 ppm in [11] was at least 80%. Moreover, in data set [12], the inhibition at 20 ppm was at least 80%. In data set [13], the inhibition at 20 ppm was at least 80%.

By inhibition is commonly meant the percentage by which the read-out fell short of the control. Usually melting point stands for the temperature, or range, at which the solid turns liquid.
